The record followed here is ChEMBL document CHEMBL1148473, “Sabadinine: a potential non-peptide anti-severe acute-respiratory-syndrome agent identified using structure-aided design” (J Med Chem, 2004).

One experiment relates to Coronaviridae. Briefly: Evaluated for effect on murine coronavirus replication; No effect. Type of experiment: functional, organism-based.
For a further experiment, the species on record is Homo sapiens. Briefly: Compound was tested for inhibition of a proteinase 3CL pro of human coronavirus; Inhibited.
Experiment [1] relates to Murine hepatitis virus strain A59. Nature of the experiment: Evaluated for cellular toxicity against mouse hepatitis virus strain A59 up to 100 uM, Not toxic. The class given is functional, organism-based.

Each structure is given as a SMILES string. Active and inactive are the calls of the source. No cut-off for these calls is given here.

As to `CC1CCC2N(C1)CC1[C@](O)(C(O)C[C@@]3(O)C4CCC5C6(O)OC4(C[C@@]13O)C5(C)CCC6O)[C@]2(C)O` (stereo partly drawn), the outcome in the experiment with Coronaviridae was inactive. Also, the Activity result in the experiment filed under Homo sapiens was “Inhibited”; in experiment [1], “Not toxic”.
